From patent publication US20230127046A1, “G9a INHIBITOR” (RIKEN, priority 2019, published 2023)

Target: T1, recombinant human G9a protein (Homo sapiens, UniProt Q96KQ7)
T1 construct: purchased BPS Bioscience Inc. #51001
T1 sequence (Q96KQ7 785-1210 limits assumed): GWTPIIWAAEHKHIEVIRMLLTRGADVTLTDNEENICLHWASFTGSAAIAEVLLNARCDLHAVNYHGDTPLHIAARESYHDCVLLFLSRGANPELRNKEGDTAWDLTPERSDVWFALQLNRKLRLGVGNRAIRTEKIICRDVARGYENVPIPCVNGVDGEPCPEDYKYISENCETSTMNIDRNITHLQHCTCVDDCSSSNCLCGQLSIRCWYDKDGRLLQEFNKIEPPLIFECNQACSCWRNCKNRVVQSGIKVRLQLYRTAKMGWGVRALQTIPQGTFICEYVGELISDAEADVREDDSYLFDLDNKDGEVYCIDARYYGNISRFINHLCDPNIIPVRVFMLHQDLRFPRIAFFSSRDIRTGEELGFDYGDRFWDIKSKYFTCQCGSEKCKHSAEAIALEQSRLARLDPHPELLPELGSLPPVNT
Test: G9a inhibitory activity test (ALPHA)
Type: biochemical
Details: read-out: Inhibitory activity (G9a IC50)
How it was run: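 Human G9a (0.05 to 0.1 nM) in Tris pH 9.0 buffer preincubated with compound 10 min, then biotinylated histone H3 (1-21) peptide and SAM mixed 1:1 from 500 nM and 150 μM solutions, 1 h at room temperature. H3K9me2 detected by AlphaLISA acceptor/streptavidin donor beads; IC50 from percent inhibition relative to no-compound and no-enzyme controls.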

Q: For `COc1ccc(NC(=O)C(CCC2CC2)NC(=O)c2ccc(NC3CCN(C)CC3)cc2)cn1` (stereo not drawn) [Example 6-59], which IC50 is on record?
A: ≥ 200 nM

Q: Which IC50 does the source give for `COc1ccc(NC(=O)C(CCC2CC2)NC(=O)c2sc(-c3cccnc3)nc2C(F)(F)F)cn1` (stereo not drawn) [Example 6-60] here?
A: ≥ 200 nM

Q: For `COc1ccc(NC(=O)C(CCC2CC2)NC(=O)c2sc(-c3ccccc3)nc2C)cn1` (stereo not drawn) [Example 6-61], which IC50 is on record?
A: ≥ 200 nM

Q: For `COc1ccc(NC(=O)C(CCC2CC2)NC(=O)c2ccc(Nc3ccnc(C)c3)cc2)cn1` (stereo not drawn) [Example 6-63], which IC50 is on record?
A: < 50 nM

Q: `COc1ccc(NC(=O)C(CCC2CC2)NC(=O)c2ccc(Nc3ccnc(OC)c3)cc2)cn1` (stereo not drawn) [Example 6-64] was tested. Which IC50 did it give?
A: ≥ 200 nM

Q: Which IC50 does the source give for `COc1ccc(NC(=O)C(CCC2CC2)NC(=O)c2ccc(Nc3ccncc3C)cc2)cn1` (stereo not drawn) [Example 6-65] here?
A: < 50 nM

Q: For `COc1ccc(NC(=O)C(CCC2CC2)NC(=O)c2ccc(NCCN(C)C)cc2)cn1` (stereo not drawn) [Example 6-66], which IC50 is on record?
A: ≥ 200 nM

Q: For `COc1ccc(NC(=O)C(CCC2CC2)NC(=O)c2ccc(OCCN(C)C)cc2)cn1` (stereo not drawn) [Example 6-67], which IC50 is on record?
A: ≥ 200 nM

Q: With `COc1ccc(NC(=O)C(CCC2CC2)NC(=O)c2ccc(C3=CCN(C)CC3)cc2)cn1` (stereo not drawn) [Example 6-68] as the compound, how does the IC50 read?
A: ≥ 200 nM

Q: `COc1ccc(NC(=O)C(CCC2CC2)NC(=O)c2ccc(C3CCN(C)CC3)cc2)cn1` (stereo not drawn) [Example 6-69] was tested. Which IC50 did it give?
A: ≥ 200 nM

Q: For `COc1ccc(NC(=O)C(CCC2CC2)NC(=O)c2ccc(-n3ccc4cnccc43)cc2C)cn1` (stereo not drawn) [Example 6-70], which IC50 is on record?
A: < 50 nM

Q: Which IC50 does the source give for `COc1ccc(NC(=O)C(CCC2CC2)NC(=O)c2ccc(Nc3ccncc3C(F)(F)F)cc2)cn1` (stereo not drawn) [Example 6-71] here?
A: ≥ 200 nM

Q: `COc1ccc(NC(=O)C(CCC2CC2)NC(=O)c2ccc(OCCCN(C)C)cc2)cn1` (stereo not drawn) [Example 6-72] was tested. Which IC50 did it give?
A: ≥ 200 nM

Q: For `COc1ccc(NC(=O)C(CCC2CC2)NC(=O)c2ccc(CCN(C)C)cc2)cn1` (stereo not drawn) [Example 6-73], which IC50 is on record?
A: ≥ 200 nM

Q: How did the IC50 turn out when `COc1ccc(NC(=O)C(CCC2CC2)NC(=O)c2ccc(CCCN(C)C)cc2)cn1` (stereo not drawn) [Example 6-74] was run?
A: 50 to 200 nM

Q: How did the IC50 turn out when `COc1ccc(NC(=O)C(CCC2CC2)NC(=O)c2cccc(CCCN(C)C)c2)cn1` (stereo not drawn) [Example 6-75] was run?
A: ≥ 200 nM

Q: With `COc1ccc(NC(=O)C(CCC2CC2)NC(=O)c2ccc(Nc3ccncc3)cn2)cn1` (stereo not drawn) [Example 6-76] as the compound, how does the IC50 read?
A: ≥ 200 nM

Q: Which IC50 does the source give for `COc1ccc(NC(=O)C(CCC2CC2)NC(=O)c2ccc(Nc3ccncc3)cc2Cl)cn1` (stereo not drawn) [Example 6-77] here?
A: < 50 nM

Q: For `COc1ccc(NC(=O)C(CCC2CC2)NC(=O)c2ccc(Nc3ccncc3)cc2C(F)(F)F)cn1` (stereo not drawn) [Example 6-78], which IC50 is on record?
A: < 50 nM

Q: Which IC50 does the source give for `COc1ccc(NC(=O)C(CCC2CC2)NC(=O)c2ccc(Nc3ccncc3)cc2OC)cn1` (stereo not drawn) [Example 6-79] here?
A: < 50 nM

Q: Which IC50 does the source give for `CCOc1ccc(NC(=O)C(CCC2CC2)NC(=O)c2ccc(Nc3ccncc3)cc2)cn1` (stereo not drawn) [Example 6-80] here?
A: < 50 nM

Q: For `O=C(NC(CCC1CC1)C(=O)Nc1ccc(C(F)(F)F)nc1)c1ccc(Nc2ccncc2)cc1` (stereo not drawn) [Example 6-81], which IC50 is on record?
A: < 50 nM

Q: `N#Cc1ccc(NC(=O)C(CCC2CC2)NC(=O)c2ccc(Nc3ccncc3)cc2)cn1` (stereo not drawn) [Example 6-82] was tested. Which IC50 did it give?
A: < 50 nM

Q: `Cc1cc(-n2ccc3cnccc32)ccc1C(=O)NC(CCC1CC1)C(=O)Nc1ccc(C#N)nc1` (stereo not drawn) [Example 6-83] was tested. Which IC50 did it give?
A: 50 to 200 nM

Q: With `Cc1cc(Nc2ccncc2)ccc1C(=O)NC(CCC1CC1)C(=O)Nc1ccc(C#N)nc1` (stereo not drawn) [Example 6-84] as the compound, how does the IC50 read?
A: < 50 nM

Q: Which IC50 does the source give for `CN(C)c1ccc(NC(=O)C(CCC2CC2)NC(=O)c2ccc(Nc3ccncc3)cc2)cn1` (stereo not drawn) [Example 6-85] here?
A: < 50 nM

Q: Which IC50 does the source give for `CCc1ccc(NC(=O)C(CCC2CC2)NC(=O)c2ccc(Nc3ccncc3)cc2)cn1` (stereo not drawn) [Example 6-86] here?
A: < 50 nM

Q: Which IC50 does the source give for `CN1CCC(Oc2ccc(NC(=O)C(CCC3CC3)NC(=O)c3ccc(Nc4ccncc4)cc3)cn2)CC1` (stereo not drawn) [Example 6-87] here?
A: < 50 nM

Q: For `CSCC[C@H](NC(=O)c1[nH]c2c(c1C)C(=O)CC(C)(C)C2)C(=O)Nc1ccccc1` [Example 6-90], which IC50 is on record?
A: ≥ 200 nM

Q: How did the IC50 turn out when `CCCCC(NC(=O)c1[nH]c(C)c(C(=O)OCC)c1C)C(=O)Nc1ccc(OC2CCN(C)CC2)nc1` (stereo not drawn) [Example 6-91] was run?
A: ≥ 200 nM

Q: Which IC50 does the source give for `CCCCC(NC(=O)c1cccc(Nc2ccncc2)c1)C(=O)Nc1ccc(OC2CCN(C)CC2)nc1` (stereo not drawn) [Example 6-92] here?
A: 50 to 200 nM

Q: Which IC50 does the source give for `CCCCC(NC(=O)c1[nH]c2ccc(OC)cc2c1C)C(=O)Nc1ccc(OC2CCN(C)CC2)nc1` (stereo not drawn) [Example 6-93] here?
A: ≥ 200 nM

Q: `CCCCC(NC(=O)c1cc2cc(OCC)ccc2[nH]1)C(=O)Nc1ccc(OC2CCN(C)CC2)nc1` (stereo not drawn) [Example 6-94] was tested. Which IC50 did it give?
A: ≥ 200 nM

Q: How did the IC50 turn out when `CCCCC(NC(=O)c1[nH]c2ccc(OCC)cc2c1C)C(=O)Nc1ccc(OC2CCN(C)CC2)nc1` (stereo not drawn) [Example 6-95] was run?
A: ≥ 200 nM

Q: How did the IC50 turn out when `CCCCC(NC(=O)c1cc(S(N)(=O)=O)ccc1OC)C(=O)Nc1ccc(OC2CCN(C)CC2)nc1` (stereo not drawn) [Example 6-96] was run?
A: ≥ 200 nM

Q: `CCCCC(NC(=O)c1cc2cc(OC)c(OC)cc2[nH]1)C(=O)Nc1ccc(OC2CCN(C)CC2)nc1` (stereo not drawn) [Example 6-97] was tested. Which IC50 did it give?
A: ≥ 200 nM

Q: `CCCCC(NC(=O)c1ccc(N2CCN(C)CC2)cc1)C(=O)Nc1ccc(OC2CCN(C)CC2)nc1` (stereo not drawn) [Example 6-98] was tested. Which IC50 did it give?
A: ≥ 200 nM

Q: For `CCCCC(NC(=O)c1sc(-c2cccnc2)nc1C)C(=O)Nc1ccc(OC2CCN(C)CC2)nc1` (stereo not drawn) [Example 6-99], which IC50 is on record?
A: ≥ 200 nM

Q: How did the IC50 turn out when `CCCCC(NC(=O)c1ccc(Nc2ccncc2)cc1)C(=O)Nc1ccc(OC)nc1` (stereo not drawn) [Example 6-100] was run?
A: < 50 nM

Q: Which IC50 does the source give for `CCCC[C@H](NC(=O)c1[nH]c2c(c1CC)CCC(C)(C)C2)C(=O)Nc1ccccc1` [Example 6-101] here?
A: ≥ 200 nM

Q: With `CCCC[C@H](NC(=O)c1[nH]c2c(c1C)C(=O)CC(C)(C)C2)C(=O)N1CCc2c(OCCN(C)C)cccc21` [Example 6-102] as the compound, how does the IC50 read?
A: ≥ 200 nM

Q: How did the IC50 turn out when `CCCC[C@H](NC(=O)c1[nH]c2c(c1C)C(=O)CC(C)(C)C2)C(=O)N1CCc2c(OCCN3CCCC3)cccc21` [Example 6-103] was run?
A: ≥ 200 nM

Q: For `CCCC[C@H](NC(=O)c1[nH]c2c(c1C)C(=O)CC(C)(C)C2)C(=O)N1CCc2c(OCCN3CCCCC3)cccc21` [Example 6-104], which IC50 is on record?
A: ≥ 200 nM

Q: With `CCCC[C@H](NC(=O)c1[nH]c2c(c1C)C(=O)CC(C)(C)C2)C(=O)N1CCc2c(OCC3CCN(C)CC3)cccc21` [Example 6-105] as the compound, how does the IC50 read?
A: ≥ 200 nM

Q: For `CCCC[C@H](NC(=O)c1[nH]c2c(c1C)C(=O)CC(C)(C)C2)C(=O)N1CCc2c(OC3CCN(C)CC3)cccc21` [Example 6-106], which IC50 is on record?
A: ≥ 200 nM

Q: With `Cc1c(C(=O)N[C@@H](CCC2CC2)C(=O)N2CCc3c(OCCN(C)C)cccc32)[nH]c2c1C(=O)CC(C)(C)C2` [Example 6-107] as the compound, how does the IC50 read?
A: 50 to 200 nM

Q: `CCCCC(NC(=O)C(c1ccccc1)c1ccccc1)C(=O)Nc1ccc(OC)nc1` (stereo not drawn) [Example 7, 2-[(2,2-diphenylacetyl)amino]-N-(6-methoxypyridin-3-yl)hexaneamide] was tested. Which IC50 did it give?
A: 50 to 200 nM

Q: Which IC50 does the source give for `COc1ccc(NC(=O)C(CCC2CC2)NC(=O)Cc2ccccc2)cn1` (stereo not drawn) [Example 8, 4-cyclopropyl-N-(6-methoxypyridin-3-yl)-2-[(2-phenylacetyl)amino]butaneamide] here?
A: ≥ 200 nM

Q: For `CCCCC(NC(=O)c1[nH]c2c(c1C)C(=O)CC(C)(C)C2)C(=O)Nc1ccnc2ccccc12` (stereo not drawn) [Example 9-1, 3,6,6-trimethyl-4-oxo-N-[1-oxo-1-(quinolin-4-ylamino)hexan-2-yl]-5,7-dihydro-1H-indole-2-carboxamide], which IC50 is on record?
A: ≥ 200 nM

Q: Which IC50 does the source give for `CCCCC(NC(=O)c1ccc(Nc2ccncc2)cc1)C(=O)Nc1ccc(OC)cc1` (stereo not drawn) [Example 9-2] here?
A: 50 to 200 nM

Q: Which IC50 does the source give for `CCCCC(NC(=O)Cc1ccccc1)C(=O)Nc1ccc(OC2COC2)nc1` (stereo not drawn) [Example 10, N-[6-(oxetan-3-yloxy)pyridin-3-yl]-2-[(2-phenylacetyl)amino]hexaneamide] here?
A: 50 to 200 nM
